Data published in patent publication US11352637B2, “Methods and compositions for herbicide tolerance in plants” (MONSANTO TECHNOLOGY LLC, priority 2017, dated 2022).

Tests used:
[1] = system: KsIAA16S in combination with KsAFB6; test: Yeast two-hybrid (Y2H) assay: KsIAA16S binding with KsAFB6 in presence of auxin; design: species or system Kochia scoparia; settings: allele KsIAA16S; auxin 500 μM; yeast colony growth
Experimental: (§1) Yeast two-hybrid (Y2H) studies were conducted using the Matchmaker® Gold Yeast Two-Hybrid System: vectors, transformation protocols and yeast strains (Clonetech Laboratories, Inc.). The coding sequences for the KsIAA16R (SEQ ID NO: 220), KsIAA16S (SEQ ID NO: 218), KsTIR1 (SEQ ID NO: 285), KsAFB6 (SEQ ID NO: 287), KsAFB2 (SEQ ID NO: 289), and KsAFB5 (SEQ ID NO: 291) were PCR amplified using primers specified in Table 2.
(§2) PCR products were gel purified and recombined into NdeI/NotI digested pGADT7 or pGBKT7 vectors using the In-Fusion® cloning system (Clonetech Laboratories, Inc.). The pGBKT7 vector contained the GAL4 DNA binding domain, rendering the fusions as the “bait,” whereas the “prey” were the fusions containing the pGADT7 vector, which contained the GAL4 activation domain. All vectors were first sequence verified and then the listed vector combinations were co-transformed into the yeast strain, Y2HGold. […] Transformants were plated on SC-Trp-Leu plates to select for those containing both plasmids. Four healthy colonies were selected at random and resuspended into 300 μL of 0.1% agar in water. Five μL of this dilution was replica spotted onto each plate. Plates were incubated at 30° C. for 3 days prior to evaluation of colony growth. […]

[2] = system: KsIAA16R in combination with KsAFB6; test: Yeast two-hybrid (Y2H) assay: KsIAA16R binding with KsAFB6 in presence of auxin; design: species or system Kochia scoparia; settings: for Interaction between KsIAA16R and KsAFB6 in the presence of the auxin: at the concentrations tested
Experimental: as §1
(§3) PCR products were gel purified and recombined into NdeI/NotI digested pGADT7 or pGBKT7 vectors using the In-Fusion® cloning system (Clonetech Laboratories, Inc.). The pGBKT7 vector contained the GAL4 DNA binding domain, rendering the fusions as the “bait,” whereas the “prey” were the fusions containing the pGADT7 vector, which contained the GAL4 activation domain. All vectors were first sequence verified and then the listed vector combinations were co-transformed into the yeast strain, Y2HGold. […] Transformants were plated on SC-Trp-Leu plates to select for those containing both plasmids. Four healthy colonies were selected at random and resuspended into 300 μL of 0.1% agar in water. Five μL of this dilution was replica spotted onto each plate. Plates were incubated at 30° C. for 3 days prior to evaluation of colony growth.
(§4) This method enabled the study of the binding/interaction of the Kochia R and S alleles of KsIAA16 with each of the Kochia TIR/AFB homologs (KsTIR1 (SEQ ID NO: 285), and KsAFB6 (SEQ ID NO: 287)) in the absence or presence of 100 μM or 500 μM exogenous concentrations of IAA, NAA, dicamba, and 2,4-D, picloram, triclopyr, quinclorac, fluroxypyr or phenylacetic acid (PAA).

[3] = system: KsIAA16 (R and S alleles) with KsTIR1 and/or KsAFB6; test: Y2H assay, summary statements over the protein combinations tested; assay type: binding, Kochia scoparia; settings: for Facilitation of interaction of KsIAA16R with KsTIR1 and/or KsAFB6: at the concentrations tested
Experimental: as §1, §3, §4

R and S Kochia biotypes = test: Greenhouse spray test for cross-resistance of Kochia R-biotype; assay type: in vivo, Kochia scoparia; settings: all treatments, track sprayer, 10 to 15 cm tall plants
Source text: To elucidate whether the Kochia R-biotype is cross resistant to 2,4-D or fluroxypyr, greenhouse grown 10 to 15 cm tall Kochia plants were sprayed with either Dicamba at 0,140, 280, 560, 2240, 4480, 6720, 8960, or 17920 g a.e.ha^−1; 2,4-D at 0, 70, 140, 280, 560, 1120, 2240, 4480, 6720, 8960 g a.e.ha^−1 or fluroxypyr at 0, 17.5, 35, 70, 140, 280, 420, 560, 1120, 2240 g a.e.ha^−1 with a track sprayer. […]

[4] = system: seedlings of the R and S Kochia biotypes; test: Root elongation response of Kochia seedlings; assay type: in vivo, Kochia scoparia; settings: R biotype seedlings; FIG. 5
Experimental: The root elongation response of seedlings from the R and S Kochia biotypes was tested to determine if the R biotype response was consistent with the Y2H findings. For root elongation studies, plant nutrient media was used, with 0.5% sucrose. Seeds were surface sterilized in 30% bleach with 0.1% Triton-X100 for 10 to 30 minutes, then rinsed twice in sterile water and resuspended in 0.1% agar for plating. Root lengths were measured to the nearest millimeter, and the average root length of 12 individuals was calculated unless otherwise noted.

[5] = system: KsIAA16R in combination with KsTIR1; test: Yeast two-hybrid (Y2H) assay: KsIAA16R binding with KsTIR1 in presence of auxin; design: species or system Kochia scoparia; settings: compared with KsIAA16S; concentration not given
Experimental: as §1, §2

Structure (SMILES)	Ability to bind in combination with KsAFB6 [1]	Interaction between KsIAA16R and KsAFB6 in the presence of the auxin [2]	Facilitation of interaction of KsIAA16R with KsTIR1 and/or KsAFB6 [3]	Y2H interaction in the presence of the auxin ([3]; any of the protein combinations tested)	Visible injury at 14 days after treatment (DAT) (R and S Kochia biotypes)	Ability of KsIAA16R to interact with KsAFB6 in the presence of the auxin ([2]; only the higher concentration could facilitate binding)	Root elongation inhibition of the R Kochia biotype [4]	Ability of KsIAA16R to interact with KsTIR1 in the presence of the auxin [5]
Nc1c(Cl)c(Cl)nc(C(=O)O)c1Cl [Picloram, 4-amino-3,5,6-trichloro-2-pyridinecarboxylic acid]	observed to interact	not observed	cannot					
Nc1c(Cl)c(F)nc(OCC(=O)O)c1Cl [Fluroxypyr, 4-amino-3,5-dichloro-6-fluoro-2-pyridyloxyacetic acid]			cannot	No interaction	observed			
O=C(O)Cc1cccc2ccccc12 [NAA, 2-(1-naphthyl) acetic acid]			can facilitate some interaction			reduced ability to interact	remained sensitive	
O=C(O)COc1ccc(Cl)cc1Cl [2,4-D, 2,4-dichlorophenoxyacetic acid]		not observed	cannot		observed		resistant	decreased ability to interact
